Measured values published in article PMC5681660, “Reduced hepatitis B and D viral entry using clinically applied drugs as novel inhibitors of the bile acid transporter NTCP” (Scientific Reports, 2017).
Counter-ions that a name gives are not always drawn.

Target: T1, human NTCP (Homo sapiens, UniProt Q14973)
T1 sequence (Q14973 1-349): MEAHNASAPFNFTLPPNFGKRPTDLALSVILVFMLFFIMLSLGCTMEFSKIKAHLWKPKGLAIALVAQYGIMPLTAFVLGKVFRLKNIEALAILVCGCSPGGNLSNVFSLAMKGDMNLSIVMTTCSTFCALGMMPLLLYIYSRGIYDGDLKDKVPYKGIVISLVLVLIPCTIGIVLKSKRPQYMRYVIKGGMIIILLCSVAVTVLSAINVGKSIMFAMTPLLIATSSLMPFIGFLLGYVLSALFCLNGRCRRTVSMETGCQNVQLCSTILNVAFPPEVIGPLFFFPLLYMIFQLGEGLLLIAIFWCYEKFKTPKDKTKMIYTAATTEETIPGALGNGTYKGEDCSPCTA
Assay: Screening taurocholate uptake assay (96-well, [14C]taurocholate, 10 µM drug)
Conditions: for B-score functional assay: screening taurocholate uptake, 10 µM drug

[1] = ranking over the functional and the binding screening assay
[2] = combined ranking of functional and binding screening assays

Compound	Ranking score [1]	B-score functional assay	Ranking score [2]	position among the hits of the screen (combined ranking of both screening assays) (1280 drugs at 10 µM, TC uptake and Myrcludex B binding screens combined)
COc1c(O[C@@H]2O[C@H](CO)[C@@H](O)[C@H](O)[C@H]2O)cc2c(c1OC)-c1ccc(SC)c(=O)cc1[C@@H](NC(C)=O)CC2 [Thiocolchicoside]	64.2729	-3.578		
C[C@]12CC[C@@H]3c4ccc(O)cc4CC[C@H]3[C@@H]1CC[C@@H]2O [Estradiol-17 beta]	76.8375	-4.121		
Nc1cc(N2CCCCC2)nc(N)[n+]1[O-] [Minoxidil]	87.241	-3.894		
CCN(CC)CCNc1ccc(CO)c2sc3ccccc3c(=O)c12 [Hycanthone]		-0.266	491.684	
CCOC(=O)n1ccn(C)c1=S [Carbimazole]	161.053	-0.455		
NS(=O)(=O)c1cc2c(cc1Cl)NCNS2(=O)=O [Hydrochlorothiazide]		0.079	515.124	
CC[C@H](C)C(=O)O[C@H]1C[C@@H](C)C=C2C=C[C@H](C)[C@H](CC[C@@H]3C[C@@H](O)CC(=O)O3)[C@H]21 [Lovastatin]	175.818	-0.084		
O=C(O)Cc1ccc(-c2ccccc2)cc1 [Felbinac]		-1.207	476.874	
[H]/N=C(\N/C(=N/[H])NCCCCCCNC(=N)NC(=N)Nc1ccc(Cl)cc1)Nc1ccc(Cl)cc1 [Chlorhexidine]	185.515	0.062		
OC(c1ccccc1)(c1ccccc1)C1CCNCC1 [Azacyclonol]		-0.041	525.026	
NC(CO)C(=O)NNCc1ccc(O)c(O)c1O (stereo not drawn) [Benserazide hydrochloride]		-0.402	520.826	
C[C@@H]1O[C@@H](O[C@@H]2C=C3CC[C@@H]4[C@H](CC[C@]5(C)[C@@H](c6ccc(=O)oc6)CC[C@]45O)[C@@]3(C)CC2)[C@H](O)[C@H](O)[C@H]1O [Proscillaridin A]	183.761	-2.06		
NC[C@H]1CC[C@H](C(=O)O)CC1 [Tranexamic acid]	255.588	0.375		
CC(=O)OC1CN2CCC1CC2 (stereo not drawn) [Aceclidine Hydrochloride]	189.214	-1.773		
CCN(CCCCOC(=O)c1ccc(OC)c(OC)c1)C(C)Cc1ccc(OC)cc1 (stereo not drawn) [Mebeverine hydrochloride]		-0.512	474.181	
COc1cc(C(=O)OCCCN2CCCN(CCCOC(=O)c3cc(OC)c(OC)c(OC)c3)CC2)cc(OC)c1OC.Cl.Cl [Dilazep dihydrochloride]		-0.659	649.692	
CN(C)CCC(c1ccc(Br)cc1)c1ccccn1 (stereo not drawn) [Brompheniramine maleate]		-0.661	520.776	
CCOC(=O)N1CCC(=C2c3ccc(Cl)cc3CCc3cccnc32)CC1 [Loratadine]	78.3326	-3.222		
O=c1cc(-c2ccc(O)c(O)c2)oc2cc(O)cc(O)c12 [Luteolin]		-0.024	585.624	

Compound	Ranking score [1]	B-score functional assay	Ranking score [2]	position among the hits of the screen (combined ranking of both screening assays) (1280 drugs at 10 µM, TC uptake and Myrcludex B binding screens combined)
Nc1nc2c(ncn2CCC(CO)CO)c(=O)[nH]1 [Penciclovir]		-0.886	573.819	
CCN1CCC[C@H]1CNC(=O)c1c(OC)ccc(Br)c1OC.Cl [Remoxipride Hydrochloride]		-0.058	496.085	
Cn1c(=O)c2[nH]cnc2n(C)c1=O [Aminophylline]		-0.16	601.379	
CCC(=O)OCC(=O)[C@@]1(OC(=O)CC)[C@@H](C)C[C@H]2[C@@H]3CCC4=CC(=O)C=C[C@]4(C)[C@@]3(Cl)[C@@H](O)C[C@@]21C [Beclomethasone dipropionate]	123.665	-3.95		
CC(=O)OCC(CCn1cnc2cnc(N)nc21)COC(C)=O [Famciclovir]		0.016	539.09	
C[C@H](CCC(=O)O)[C@H]1CC[C@H]2[C@@H]3[C@H](O)C[C@@H]4C[C@H](O)CC[C@]4(C)[C@H]3CC[C@]12C [chenodeoxycholic acid]				≤ 150
C=C(NC(=O)C(=C)NC(=O)c1csc(C2=N[C@@H]3c4csc(n4)[C@H]4NC(=O)c5csc(n5)[C@H]([C@](C)(O)[C@@H](C)O)NC(=O)[C@H]5CSC(=N5)/C(=C/C)NC(=O)[C@H]([C@@H](C)O)NC(=O)c5csc(n5)[C@]3(CC2)NC(=O)[C@H](C)NC(=O)C(=C)NC(=O)[C@H](C)NC(=O)[C@H]([C@@H](C)CC)N[C@@H]2C=Cc3c([C@H](C)O)cc(nc3[C@H]2O)C(=O)O[C@@H]4C)n1)C(N)=O [Thiostrepton]	23.8747	-0.068		
CCN1CCN(C(=O)N[C@@H](C(=O)N[C@@H]2C(=O)N3[C@@H]2SC(C)(C)[C@@H]3C(=O)O)c2ccccc2)C(=O)C1=O [Piperacillin sodium salt]		-0.194	549.729	
CC(=O)O[C@H]1C[C@H](O[C@H]2[C@@H](O)C[C@H](O[C@H]3[C@@H](O)C[C@H](O[C@H]4CC[C@@]5(C)[C@H](CC[C@@H]6[C@@H]5C[C@@H](O)[C@]5(C)[C@@H](C7=CC(=O)OC7)CC[C@]65O)C4)O[C@@H]3C)O[C@@H]2C)O[C@H](C)[C@H]1O[C@@H]1O[C@H](CO)[C@@H](O)[C@H](O)[C@H]1O [Lanatoside C]		-0.511	583.598	
OC(CCN1CCCC1)(c1ccccc1)C1CCCCC1 (stereo not drawn) [Procyclidine hydrochloride]		-0.705	562.821	
CN(C)CCOC(=O)C(c1ccccc1)C1(O)CCCC1 (stereo not drawn) [Cyclopentolate hydrochloride]		-0.521	624.063	
Oc1c(Cl)cc(Cl)c2cccnc12 [Chloroxine]		-0.339	538.476	
CC(C)NCC(O)COc1ccc(CCOCC2CC2)cc1 (stereo not drawn) [Betaxolol hydrochloride]		0.038	583.493	
CN(CCOc1ccc(NS(C)(=O)=O)cc1)CCc1ccc(NS(C)(=O)=O)cc1 [Dofetilide]		-0.213	626.449	
COCC(=O)Nc1c(I)c(C(=O)NCC(O)CO)c(I)c(C(=O)N(C)CC(O)CO)c1I (stereo not drawn) [Iopromide]	153.642	-5.088		
CCCCC(CC)CNC(=N)NC(=N)NCCCCCCNC(=N)NC(=N)NCC(CC)CCCC (stereo not drawn) [Alexidine dihydrochloride]	6.481	-9.197		
CC(=O)[N-]S(=O)(=O)c1ccc(N)cc1.O.[Na+] [Sulfacetamide sodic hydrate]	277.153	-0.444		
CC(C)n1c(/C=C/C(O)CC(O)CC(=O)O)c(-c2ccc(F)cc2)c2ccccc21 (stereo not drawn) [Fluvastatin sodium salt]	89.7998	-3.098		
OC(Cn1cncn1)(Cn1cncn1)c1ccc(F)cc1F [Fluconazole]		1.083	553.146	
